Source: patent publication US20230357099A1, “PYRAZOLO [3,4-B] PYRIDINE-4-CARBOXAMIDE NITRIFICATION INHIBITOR” (EUROCHEM ANTWERPTEN, priority 2020, published 2023)

Legend:
[1] = tested on: ABIL (ammonia-binding liquid inoculum), nitrifying microbial enrichment containing both AOA and AOB; assay: Nitrification inhibition assay on ABIL (ammonium consumption); format: cell-based; settings: 0% = as strong as 100 µM PTIO, 100% = no inhibition
[2] = tested on: Nitrososphaera viennensis; assay: Nitrification inhibition assay on Nitrososphaera viennensis (nitrite, Griess); format: cell-based, Nitrososphaera viennensis EN76T; settings: 0% = as strong as 100 µM PTIO, 100% = no inhibition
Procedure, shortened: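 N. viennensis EN76T cultures in FWM (pH 7.5, NH4Cl-supplemented), 5× concentrated, treated with compounds at 2.5 µM final (0.25% DMSO) and incubated 24 h at 42 °C. Nitrite measured by Griess absorbance at 540 nm against a standard curve. Relative nitrification normalized between DMSO (no compound) and 100 µM PTIO controls.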

agricultural soils = assay: In soil nitrification inhibition assay; settings: soil; for inhibition at 50 µM: 50 µM of each compound; for inhibition at 100 µM: 100 µM of each compound
Description: Top layer (0 to 10 cm) soil samples were collected from different fields in Belgium (Merelbeke, Sint-Laureins and Moorslede). Vegetation was removed and samples were taken from different plots. All soil samples were mixed and sieved (mesh size 2.8 mm) to filter large debris and homogenize soil. The soil was stored at 5° C. in plastic containers covered with Saran foil to prevent changes in microbial community composition and to maintain the original soil water content.
Soil water content was determined by drying 20 g soil for ≥ 48 h in a 60° C. oven and measuring weight before and after drying. Based on the soil water content (± 20%), compound solutions were prepared so that addition of 200 µl compound and 200 µl NH4Cl solution would result in a final compound concentration of 50 µM (unless otherwise stated) and a final NH4+ concentration of 10 mM. Per treatment, 5 small pots were filled with 20 g soil. Next, the soil was treated first with the respective compound solution and then with the NH4Cl solution. Per tray, positive (50 µM DMP) and negative controls (DMSO) were included. […] Demineralized water was added to the soil every 2 to 3 days to a soil weight of 20 g. In the end, each sample of 20 g soil was dissolved in 100 ml 1 M KCI and shaken for 1 hour, followed by filtration through Whatmann® paper. The filtrate was used to measure pH, NH4+ and NO3— concentrations. The nitrification percentage was calculated as the ratio of the consumed ammonium in treated soil versus the consumed ammonium in non-treated soil; the nitrification inhibition percentage was calculated as ‘100% - the nitrification percentage’.

## CC(C)c1cc(C(=O)N2CCSCC2)c2cnn(C(C)C)c2n1 [Example 2]
[1]; 2 µM compound
  ABIL - relative nitrification (%) at 2 µM: 66%
[1]; 24 h, 10 µM compound, 24 h, read-out: ABIL - relative nitrification (%) at 10 µM
  activity at 10 µM: -31%
[2]; 0.5 µM compound
  N. viennensis - relative nitrification (%) at 0.5 µM: 100%
[2]; 5 µM compound
  N. viennensis - relative nitrification (%) at 5 µM: 75%
[2]; 25 µM compound
  N. viennensis - relative nitrification (%) at 25 µM: 0%
Agricultural soils; 72 h, Soil 2, 3 days
  inhibition at 50 µM: 4%
Agricultural soils; 72 h, Soil 3, 3 days
  inhibition at 50 µM: 5%
Agricultural soils; 168 h, Soil 1, 7 days
  inhibition at 50 µM: 0%
Agricultural soils; 168 h, Soil 2, 7 days
  inhibition at 50 µM: 15%
Agricultural soils; 168 h, Soil 2, 7 days, 6 inhibitors alone and combined with Example 2
  inhibition at 100 µM: 0%
Agricultural soils; 168 h, Soil 2, 7 days, double and triple combinations
  inhibition at 100 µM: 0%
Agricultural soils; 168 h, Soil 3, 7 days
  inhibition at 50 µM: 0%
